{
  "source": "patent US11078220B2",
  "about": "“High-purity large-scale preparation of stannsoporfin” (Mallinckrodt Hospital Products IP Limited, priority 2006, dated 2021)",
  "key": {"[1]": {"experiment": "Long-term storage stability of high-purity stannsoporfin at 25° C. and 60% relative humidity", "assay_type": "physicochemical", "details": "25° C./60% RH", "experimental": "(§1) The long-term stability of the compound was studied under two different storage conditions: 25° C. (+/−2° C.) and 60% relative humidity (+/−5%); and 40° C. (+/−2° C.) and 75% relative humidity (+/−5%). Primary packaging for the compound was a 4-mil polyethylene bag and secondary packaging for the compound was a 4 mil polyethylene bag, stored in an HDPE drum.\n(§2) Table 5 and Table 6 show stability data for the batch described in Table 3, under the 25° C./60% RH and 40° C./75% RH conditions, respectively. Table 7 and Table 8 show stability data for the batch described in Table 4 under the 25° C./60% RH and 40° C./75% RH conditions, respectively. Data for the zero-month time point was taken from the batch release analysis (the zero time point represents the actual date when samples were placed in the stability test chambers). The samples were analyzed at approximately 3 months and approximately 6 months after the samples were placed under the storage conditions."}, "[2]": {"experiment": "Long-term storage stability of high-purity stannsoporfin at 40° C. and 75% relative humidity", "assay_type": "physicochemical", "details": "40° C./75% RH", "experimental": "as §1, §2"}, "[3]": {"details": "batch of Table 3 (0.840 kg), 0 months"}, "[4]": {"details": "batch of Table 3 (0.840 kg), 3 months"}, "[5]": {"details": "batch of Table 3 (0.840 kg), 6 months"}, "[6]": {"details": "batch of Table 4 (1.364 kg), 0 months"}, "[7]": {"details": "batch of Table 4 (1.364 kg), 3 months"}, "[8]": {"details": "batch of Table 4 (1.364 kg), 6 months"}},
  "data": [
    {"substance": "tin (IV) mesoporphyrin IX dichloride [stannsoporfin]", "values": [
      {"measurement": "HPLC assay (w/w as is)", "setting": "[1]; [3]", "value": 100.4, "unit": "%"},
      {"measurement": "HPLC assay (w/w, solvent-free anhydrous basis)", "setting": "[1]; [3]", "value": 100.7, "unit": "%"},
      {"measurement": "HPLC purity (impurity peak at RRt retention time 0.72-0.73)", "setting": "[1]; [3]", "value": 0.06, "unit": "%"},
      {"measurement": "HPLC purity (total impurities)", "setting": "[1]; [3]", "value": 0.3},
      {"measurement": "Water content (Karl Fischer, coulometric)", "setting": "[1]; [3]", "value": "Trace < 1%"},
      {"measurement": "HPLC assay (w/w as is)", "setting": "[1]; [4]", "value": 99.6, "unit": "%"},
      {"measurement": "HPLC assay (w/w, solvent-free anhydrous basis)", "setting": "[1]; [4]", "value": 99.8, "unit": "%"},
      {"measurement": "HPLC purity (impurity peak at RRt retention time 0.72-0.73)", "setting": "[1]; [4]", "value": "<0.05", "unit": "%"},
      {"measurement": "HPLC purity (total impurities)", "setting": "[1]; [4]", "value": 0.22},
      {"measurement": "Water content (Karl Fischer, coulometric)", "setting": "[1]; [4]", "value": "<1% (0.1%)"},
      {"measurement": "HPLC assay (w/w as is)", "setting": "[1]; [5]", "value": 98.2, "unit": "%"},
      {"measurement": "HPLC assay (w/w, solvent-free anhydrous basis)", "setting": "[1]; [5]", "value": 98.4, "unit": "%"},
      {"measurement": "HPLC purity (impurity peak at RRt retention time 0.72-0.73)", "setting": "[1]; [5]", "value": 0.07, "unit": "%"},
      {"measurement": "HPLC purity (total impurities)", "setting": "[1]; [5]", "value": 0.24},
      {"measurement": "Water content (Karl Fischer, coulometric)", "setting": "[1]; [5]", "value": "<1% (0.1%)"},
      {"measurement": "HPLC assay (w/w as is)", "setting": "[1]; [6]", "value": 102.3, "unit": "%"},
      {"measurement": "HPLC assay (w/w, solvent-free anhydrous basis)", "setting": "[1]; [6]", "value": 102.3, "unit": "%"},
      {"measurement": "HPLC parity (total impurities)", "setting": "[1]; [6]", "value": 0.22},
      {"measurement": "HPLC purity (impurity peak at RRt retention time 0.72-0.73)", "setting": "[1]; [6]", "value": 0.06, "unit": "%"},
      {"measurement": "Water content (Karl Fischer, coulometric)", "setting": "[1]; [6]", "value": "Trace < 1%"},
      {"measurement": "HPLC assay (w/w as is)", "setting": "[1]; [7]", "value": 102.0, "unit": "%"},
      {"measurement": "HPLC assay (w/w, solvent-free anhydrous basis)", "setting": "[1]; [7]", "value": 102.1, "unit": "%"},
      {"measurement": "HPLC parity (total impurities)", "setting": "[1]; [7]", "value": 0.29},
      {"measurement": "HPLC purity (impurity peak at RRt retention time 0.72-0.73)", "setting": "[1]; [7]", "value": 0.05, "unit": "%"},
      {"measurement": "Water content (Karl Fischer, coulometric)", "setting": "[1]; [7]", "value": "<1% (0.1%)"},
      {"measurement": "HPLC assay (w/w as is)", "setting": "[1]; [8]", "value": 98.4, "unit": "%"},
      {"measurement": "HPLC assay (w/w, solvent-free anhydrous basis)", "setting": "[1]; [8]", "value": 98.5, "unit": "%"},
      {"measurement": "HPLC parity (total impurities)", "setting": "[1]; [8]", "value": 0.19},
      {"measurement": "HPLC purity (impurity peak at RRt retention time 0.72-0.73)", "setting": "[1]; [8]", "value": 0.05, "unit": "%"},
      {"measurement": "Water content (Karl Fischer, coulometric)", "setting": "[1]; [8]", "value": "<1% (0.1%)"},
      {"measurement": "HPLC assay (w/w as is)", "setting": "[2]; [3]", "value": 100.4, "unit": "%"},
      {"measurement": "HPLC assay (w/w, solvent-free anhydrous basis)", "setting": "[2]; [3]", "value": 100.7, "unit": "%"},
      {"measurement": "HPLC purity (impurity peak at RRt retention time 0.72-0.73)", "setting": "[2]; [3]", "value": 0.06, "unit": "%"},
      {"measurement": "HPLC purity (total impurities)", "setting": "[2]; [3]", "value": "03"},
      {"measurement": "Water content (Karl Fischer, coulometric)", "setting": "[2]; [3]", "value": "Trace <1%"},
      {"measurement": "HPLC assay (w/w as is)", "setting": "[2]; [4]", "value": 100.9, "unit": "%"},
      {"measurement": "HPLC assay (w/w, solvent-free anhydrous basis)", "setting": "[2]; [4]", "value": 101.2, "unit": "%"},
      {"measurement": "HPLC purity (impurity peak at RRt retention time 0.72-0.73)", "setting": "[2]; [4]", "value": "<0.05", "unit": "%"},
      {"measurement": "HPLC purity (total impurities)", "setting": "[2]; [4]", "value": 0.28},
      {"measurement": "Water content (Karl Fischer, coulometric)", "setting": "[2]; [4]", "value": "<1% (0.2%)"},
      {"measurement": "HPLC assay (w/w as is)", "setting": "[2]; [5]", "value": 99.6, "unit": "%"},
      {"measurement": "HPLC assay (w/w, solvent-free anhydrous basis)", "setting": "[2]; [5]", "value": 99.8, "unit": "%"},
      {"measurement": "HPLC purity (impurity peak at RRt retention time 0.72-0.73)", "setting": "[2]; [5]", "value": 0.06, "unit": "%"},
      {"measurement": "HPLC purity (total impurities)", "setting": "[2]; [5]", "value": 0.26},
      {"measurement": "Water content (Karl Fischer, coulometric)", "setting": "[2]; [5]", "value": "<1% (0.1%)"},
      {"measurement": "HPLC assay (w/w as is)", "setting": "[2]; [6]", "value": 102.3, "unit": "%"},
      {"measurement": "HPLC assay (w/w, solvent-free anhydrous basis)", "setting": "[2]; [6]", "value": 102.3, "unit": "%"},
      {"measurement": "HPLC purity (impurity peak at RRt retention time 0.72-0.73)", "setting": "[2]; [6]", "value": 0.06, "unit": "%"},
      {"measurement": "HPLC purity (total impurities)", "setting": "[2]; [6]", "value": 0.22},
      {"measurement": "Water content (Karl Fischer, coulometric)", "setting": "[2]; [6]", "value": "Trace < 1%"},
      {"measurement": "HPLC assay (w/w as is)", "setting": "[2]; [7]", "value": 101.0, "unit": "%"},
      {"measurement": "HPLC assay (w/w, solvent-free anhydrous basis)", "setting": "[2]; [7]", "value": 101.1, "unit": "%"},
      {"measurement": "HPLC purity (impurity peak at RRt retention time 0.72-0.73)", "setting": "[2]; [7]", "value": "<0.05", "unit": "%"},
      {"measurement": "HPLC purity (total impurities)", "setting": "[2]; [7]", "value": 0.29},
      {"measurement": "Water content (Karl Fischer, coulometric)", "setting": "[2]; [7]", "value": "<1% (0.1%)"},
      {"measurement": "HPLC assay (w/w as is)", "setting": "[2]; [8]", "value": 97.7, "unit": "%"},
      {"measurement": "HPLC assay (w/w, solvent-free anhydrous basis)", "setting": "[2]; [8]", "value": 97.8, "unit": "%"},
      {"measurement": "HPLC purity (impurity peak at RRt retention time 0.72-0.73)", "setting": "[2]; [8]", "value": 0.06, "unit": "%"},
      {"measurement": "HPLC purity (total impurities)", "setting": "[2]; [8]", "value": 0.24},
      {"measurement": "Water content (Karl Fischer, coulometric)", "setting": "[2]; [8]", "value": "<1% (0.1%)"}
    ]}
  ]
}
